Laboratory results published in article PMC11302729, “Repurposing Hsp90 inhibitors as antimicrobials targeting two-component systems identifies compounds leading to loss of bacterial membrane integrity” (Microbiology Spectrum, 2024).
≈ marks a conversion by molar mass, not a printed value. Where “and” joins values, the source holds several entries; their conditions need not be identical. Equal entries are not always repeated. Where two headings read alike, the source gives them in different places. No end group written: not given here.

Assays:
Assay type in all cases: cell-based
[1] = test system: Pasteurella haemolytica ATCC 29701; assay: MIC (microdilution) against P. haemolytica; settings: Mannheimia haemolytica, ATCC29701, read-out: MIC P. haemolytica, Table ST1
Description: (§1) Staphylococcus aureus str. Newman, Enterococcus faecalis vanA (strain E0155), Enterococcus faecium vanA (strain E1654), Escherichia coli ATCC 25922, Escherichia coli D21f2 with a truncated LPS barrier, Escherichia coli JW5503 (ΔtolC) ([49]), Pseudomonas aeruginosa ATCC 27853, and Pasteurella haemolytica ATCC 29701 were grown in Mueller-Hinton Broth (MHB) (Oxoid, Basingstoke, UK) and incubated at 37°C.
(§2) The minimal inhibitory concentration was determined using the microdilution method following the guidelines of the European Committee on Antimicrobial Susceptibility Testing ([50]). Briefly, a series of twofold dilutions in MHB of each compound were made in a 96-well plate, with final concentrations ranging from 50 to 0.39 µg/mL in 100 µL final volume per well. A hundred microliters of 1:100 dilution of an overnight culture of the correspondent bacteria in MHB was added to each well. Plates were incubated for 18 hours at 37°C. MIC was recorded as the lowest concentration where no growth was detected as measured by optical density at 600 nm (OD600) using Spectramax M5 (Molecular Devices LLC, San Jose, CA, USA). […] Wells containing bacteria with or without 1% DMSO and medium alone were included as controls in every plate.

[2] = test system: Enterococcus faecalis vanA (strain E0155); assay: MIC (microdilution) against E. faecalis; settings: Enterococcus faecalis, read-out: MIC E. faecalis
Description: as §1, §2

[3] = test system: Escherichia coli JW5503 (ΔtolC); assay: MIC (microdilution) against E. coli JW5503; settings: Escherichia coli, read-out: MIC E. coli JW5503
From the text: (§3) We also tested the inhibitory activity of compounds in two different E. coli mutants: (i) E. coli JW5503 that lacks TolC efflux pumps and (ii) E. coli D21f2 that has a defective LPS inner core increasing permeability of the outer membrane. E. coli D21f2 has a slightly higher susceptibility to DPP compounds than E. coli ATCC25922.
as §1, §2

[4] = test system: S. aureus str. Newman; assay: Membrane permeability using SYTOX-Green, flow cytometry; settings: for % FITC stained bacteria 0.5 xMIC: 0.5× MIC; for % FITC stained bacteria 1 xMIC / Loss of membrane integrity: 1× MIC; for Membrane damage: if considered to cause membrane damage to S. aureus
Description: S. aureus str. Newman was grown to exponential phase (OD600 = 0.4) in MHB media. […] Nisin (Sigma-Aldrich) and novobiocin (Sigma-Aldrich) were used as positive and negative controls for membrane permeabilization, and stained and unstained untreated controls were also included in each assay. After exposure, samples were centrifuged at 4,000 r.p.m. for 5 min and resuspended in PBS. Bacteria were dyed by adding the fluorescent nuclear stain SYTOX Green (Molecular Probes, Invitrogen) to a final concentration of 0.5 µM and incubating for 5 min in the dark. Samples were centrifuged again and resuspended with PBS to remove unbound stain. Three hundred microliters of each sample was transferred to a clean well in a 96-well clear-bottom plate (Corning Incorporated). Fluorescence was measured in CytoFLEX flow cytometer (Beckman Coulter, Brea, CA, USA) using the green (FITC) channel with the excitation wavelength at 488 nm. Overlay histograms were created with CytExpert Software (Beckman Coulter, Brea, CA, USA).

[5] = test system: HEK293 cells; assay: in vitro; settings: LC50/MIC (HEK293 / S. aureus)
Description: (§4) HEK293 cells and the human hepatocellular carcinoma cells (HepG2) were routinely cultured in 75-cm^2 culture flasks (Corning Incorporated) on high-glucose Dulbecco’s modified Eagle medium (DMEM) containing glutaMax and phenol red (Gibco) supplemented with 1% penicillin/streptomycin (Gibco) and 10% fetal bovine serum (FBS) (Gibco). Cells were maintained at 37°C and 5% CO2.
(§5) Cytotoxicity assays with HEK293 and HepG2 cells were performed in 96-well plates seeded with 5 × 10^4 cells/well and incubated for 24 hours to reach 80%–90% confluency. Exterior wells were filled with only medium to prevent evaporation. Culture medium was removed from the cells, and 100 µL of exposure medium [high-glucose DMEM without phenol red (Gibco)] was added to avoid a potential interaction between FBS components or antibiotics and tested compounds. A twofold dilution series of compounds in exposure medium (range 100–3.2 μg/mL) was made in a separate 96-well plate, and 100 µL of each of these dilutions was added to the assay plates for 24 hours at 37°C in the presence of 5% CO2. Control wells contained cells with DMEM, DMEM + 1% DMSO (vehicle control), or DMEM + 20% DMSO. Wells without cells were also included as negative control. After exposure, the medium was replaced with 100 µL 10% Alamar Blue (Invitrogen) in exposure medium. After 45 min incubation at 37°C and 5% CO2, fluorescence was measured on a Spectramax M5 plate reader at λex = 541 nm, λem = 590 nm. Cell viability compared with the vehicle control was calculated, and inhibition curves for each compound were fitted (non-linear curve fit, four variables, bottom constrained = 0) in Prism 9 (GraphPad Software, San Diego, USA).

[6] = test system: Escherichia coli ATCC 25922; assay: MIC (microdilution) against E. coli; settings: Escherichia coli
Description: as §1, §2

[7] = test system: Pseudomonas aeruginosa ATCC 27853; assay: MIC (microdilution) against P. aeruginosa; settings: Pseudomonas aeruginosa
Description: as §1, §2

[8] = test system: Enterococcus faecium vanA (strain E1654); assay: MIC (microdilution) against E. faecium; settings: Enterococcus faecium, read-out: MIC E. faecium
Description: as §1, §2

[9] = test system: Staphylococcus aureus str. Newman; assay: Minimal inhibitory concentration (microdilution) against S. aureus; settings: for MIC S. aureus: Table ST3
Description: as §1, §2

[10] = in vitro; settings: human
Description: as §4, §5

[11] = test system: Escherichia coli D21f2 with a truncated LPS barrier; assay: MIC (microdilution) against E. coli D21f2; settings: read-out: MIC E coli D21f2
From the text: as §3, §1, §2

[12] = ATCC25922, Table ST1, read-out: MIC E. coli
[13] = ATCC27853, Table ST1, read-out: MIC P. aeruginosa
[14] = Staphylococcus aureus, NEWMAN, Fig 2
[15] = Staphylococcus aureus, NEWMAN, Fig 2, value in parentheses
[16] = Table ST3, value in parentheses

Compound	MIC [1] [µg/mL]	MIC [2] [µg/mL]	MIC [3] [µg/mL]	% FITC stained bacteria 0.5 xMIC ([4]; 5 min exposure) [%]	% FITC stained bacteria 1 xMIC ([4]; 5 min exposure) [%]	% FITC stained bacteria 2 xMIC ([4]; 2× MIC, 5 min exposure) [%]	Selectivity Index [5]	MIC [6, 12] [µg/mL]	MIC [7, 13] [µg/mL]	MIC [8] [µg/mL]	MIC [9, 14] [µg/mL]	MIC [9, 15] [µM]	MIC S. aureus [9] [µg/mL]	MIC [9, 16] [µM]	CC50 at 24 h [10]	other results
Oc1ccc(-c2[nH]nc(C(F)(F)F)c2-c2ccccc2)c(O)c1 [DPP-1]	25 (≈ 78.1 µM)	12.5 (≈ 39 µM)	1.56 (≈ 4.87 µM)	30.46	39.72	46.63	0.65	> 250	> 250	12.5 (≈ 39 µM)	6.25	19.5	6.25 (≈ 19.5 µM)	19.53		Membrane damage [4]: YES
Oc1cc(OCc2ccccc2)ccc1-c1[nH]nc(C(F)(F)F)c1-c1ccccc1 [DPP-4]	125 (≈ 305 µM)	3.12 (≈ 7.6 µM)	6.25 (≈ 15.2 µM)	7.94	14.15	19.78	4.65	> 250	> 250	3.12 (≈ 7.6 µM)	1.56	3.8	1.56 (≈ 3.8 µM)	3.80	7.26 µg/mL and 17.7 µM	Loss of membrane integrity ([4]; 5 min exposure): did not cause significant loss of membrane integrity; MIC [11]: > 50 µg/mL
Cc1n[nH]c(-c2ccc(O)cc2O)c1-c1ccc(Cl)cc1 [DPP-9]	25 (≈ 83.1 µM)	25 (≈ 83.1 µM)	12.5 (≈ 41.6 µM)	38.22	41.34	43.78	0.49	> 250	> 250	25 (≈ 83.1 µM)	25	83.3	25 (≈ 83.1 µM)	83.33		Membrane damage [4]: YES; MIC [11]: 50 µg/mL (≈ 166 µM)
COc1ccc(-c2[nH]nc(C)c2-c2ccc(Cl)cc2)c(O)c1 [DPP-10]	62.5 (≈ 199 µM)	250 (≈ 794 µM)	6.25 (≈ 19.9 µM)	28.57	37.28	40.99	0.93	> 250	> 250	250 (≈ 794 µM)	25	79.4	25 (≈ 79.4 µM)	79.37		Membrane damage [4]: YES; MIC [11]: 250 µg/mL (≈ 794 µM)
COc1ccc(-c2c(C(F)(F)F)n[nH]c2-c2ccc(OCc3ccccc3)cc2O)cc1 [DPP-15]	> 250	1.56 (≈ 3.54 µM)	3.12 (≈ 7.08 µM)	9.29	13.68	18.42	3.10	> 250	> 250	1.56 (≈ 3.54 µM)	3.12	7.09	3.12 (≈ 7.08 µM)	7.09	9.64 µg/mL and 21.9 µM	Loss of membrane integrity ([4]; 5 min exposure): did not cause significant loss of membrane integrity
COc1ccccc1-c1c(C(F)(F)F)n[nH]c1-c1ccc(O)cc1O [DPP-16]	50 (≈ 143 µM)	50 (≈ 143 µM)	3.13 (≈ 8.94 µM)				0.65	> 250	> 250	50 (≈ 143 µM)	25	71.4	25 (≈ 71.4 µM)	71.43	16.4 µg/mL and 46.7 µM	
COc1ccc(-c2[nH]nc(C(F)(F)F)c2-c2ccccc2OC)c(O)c1 [DPP-17]	50 (≈ 137 µM)		6.25 (≈ 17.2 µM)				0.50			> 250	25	68.5	25 (≈ 68.6 µM)	68.49	12.6 µg/mL and 34.5 µM	MIC ([2]; 18 h): > 250 µg/mL; MIC ([6]; ATCC25922, read-out: MIC E. coli): > 250 µg/mL; MIC ([7]; ATCC27853, read-out: MIC P. aeruginosa): > 250 µg/mL
COc1ccc(-c2c(C(F)(F)F)n[nH]c2-c2ccc(O)cc2O)cc1OC [DPP-18]	> 250	50 (≈ 131 µM)	6.25 (≈ 16.4 µM)				0.45	> 250	> 250	50 (≈ 131 µM)	50	132	50 (≈ 131 µM)	131.58	22.8 µg/mL and 60 µM	
COc1ccc(-c2[nH]nc(C(F)(F)F)c2-c2ccc(OC)c(OC)c2)c(O)c1 [DPP-19]	> 250	50 (≈ 127 µM)	12.5 (≈ 31.7 µM)				0.55	> 250	> 250	50 (≈ 127 µM)	25	63.3	25 (≈ 63.4 µM)	63.29	13.7 µg/mL and 34.6 µM	
CO[C@@H]1[C@@H](OC(N)=O)[C@@H](O)[C@H](Oc2ccc3c(O)c(NC(=O)c4ccc(O)c(CC=C(C)C)c4)c(=O)oc3c2C)OC1(C)C [Novobiocin, reference compound]				8.28	12.62	13.17										Effect on membrane integrity ([4]; 2× MIC, 5 min exposure): no effect on membrane integrity
Nisin: positive control for membrane permeabilization (ITSISLCTPGCKTGALMGCNMKTATCHCSIHVSK; ends and bridges not checked; also: lantibiotic nisin A: dehydrated residues and lanthionine rings not given here; UniProt P13068 24-57, looked up) [reference compound]				16.37	53.32	59.41										
